Columns and labels:
[1] = system: Italian ryegrass; experiment: Test E pre-/postemergence herbicide test; type: in vivo, Lolium multiflorum; details: Preemergence
Procedure, shortened: (§1)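 Seeds were planted and treated preemergence with test chemicals in a non-phytotoxic solvent mixture containing surfactant; plants at 2 to 18 cm (1- to 4-leaf stage) received postemergence applications of the same formulation. After 12 to 14 days in a greenhouse, injury was visually rated against untreated controls on a 0 to 100 scale.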

[2] = system: wild oat; experiment: Test C postemergence herbicide test; type: in vivo, Avenafatua
Method: (§2) At the same time, plants selected from these crop and weed species and also winter barley (Hordeum vulgare L.), blackgrass (Alopecurus myosuroides Huds.), canarygrass (Phalaris minor Retz.), chickweed (Stellaria media (L.) Vill.), downy bromegrass (Bromus tectorum L.), green foxtail (Setaria viridis (L.) Beauv.), Italian ryegrass (Lolium multiflorum Lam.), wheat (Triticum aestivum L.), wild oat (Avenafatua L.) and windgrass (Apera spica-venti (L.) Beauv.) were treated with postemergence applications of some of the test chemicals formulated in the same manner. Plants ranged in height from 2 to 18 cm (1- to 4-leaf stage) for postemergence treatments. Plant species in the flooded paddy test consisted of rice (Oryza sativa), smallflower umbrella sedge (Cyperus difformis L.), ducksalad (Heteranthera limosa (Sw.) Willd.) and barnyardgrass (Echinochloa crus-galli (L.) Beauv.) grown to the 2-leaf stage for testing. Treated plants and controls were maintained in a greenhouse for 12 to 14 days, after which time all species were compared to controls and visually evaluated. Plant response ratings, summarized in Table C, are based on a scale of 0 to 100 where 0 is no effect and 100 is complete control. A dash (-) response means no test result.

[3] = system: tropical spiderwort; experiment: Test E pre-/postemergence herbicide test; type: in vivo, Commelina benghalensis; details: Preemergence
Procedure, shortened: as §1

[4] = system: downy bromegrass; experiment: Test C postemergence herbicide test; type: in vivo, Bromus tectorum
Method: as §2

[5] = system: canarygrass; experiment: Test C postemergence herbicide test; type: in vivo, Phalaris minor
Method: as §2

[6] = system: guineagrass; experiment: Test E pre-/postemergence herbicide test; type: in vivo, Panicum maximum; details: Preemergence
Procedure, shortened: as §1

[7] = system: green foxtail; experiment: Test E pre-/postemergence herbicide test; type: in vivo, Setaria viridis; details: Preemergence
Procedure, shortened: as §1

[8] = system: itchgrass; experiment: Test E pre-/postemergence herbicide test; type: in vivo, Rottboellia cochinchinensis; details: Preemergence
Procedure, shortened: as §1

[9] = system: large crabgrass; experiment: Test E pre-/postemergence herbicide test; type: in vivo, Digitaria sanguinalis; details: Preemergence
Procedure, shortened: as §1

[10] = system: quackgrass; experiment: Test E pre-/postemergence herbicide test; type: in vivo, Elytrigia repens; details: Preemergence
Procedure, shortened: as §1

[11] = system: prickly sida; experiment: Test E pre-/postemergence herbicide test; type: in vivo, Sida spinosa; details: Preemergence
Procedure, shortened: as §1

[12] = system: common chickweed; experiment: Test E pre-/postemergence herbicide test; type: in vivo, Stellaria media; details: Preemergence
Procedure, shortened: as §1

[13] = system: green foxtail; experiment: Test C postemergence herbicide test; type: in vivo, Setaria viridis
Method: as §2

[14] = system: mustard; experiment: Test E pre-/postemergence herbicide test; type: in vivo, Brassica nigra; details: Preemergence
Procedure, shortened: as §1

[15] = 250 g ai/ha, scale 0 (no effect) to 100 (complete control)
[16] = 500 g ai/ha, scale 0 (no effect) to 100 (complete control)
[17] = postemergence, 125 g ai/ha, scale 0 to 100
[18] = postemergence, 62 g ai/ha, scale 0 to 100
[19] = Postemergence, 250 g ai/ha, scale 0 to 100, 0 no effect, 100 complete control
[20] = postemergence, 31 g ai/ha, scale 0 to 100
[21] = Postemergence, 500 g ai/ha, scale 0 to 100, 0 no effect, 100 complete control

Cc1nn(C(C)(C)C)nc1C(=O)Nc1cccc(C(=O)N2CC=CC2)c1 [Compound 393]
Plant response rating, Ryegrass, Italian ([1]; 62 g ai/ha, scale 0 to 100): 10 | Plant response rating, Ryegrass, Italian ([1]; 125 g ai/ha, scale 0 to 100): 20 | Plant response rating, Ryegrass, Italian [1, 15]: 85 | Plant response rating, Ryegrass, Italian [1, 16]: 85 | Plant response rating, Oat, Wild [2, 17]: 65 | Plant response rating, Oat, Wild [2, 18]: 55 | Plant response rating, Spiderwort ([3]; 125 g ai/ha, scale 0 to 100): 100 | Plant response rating, Spiderwort [3, 15]: 100 | Plant response rating, Spiderwort [3, 16]: 100 | Plant response rating, Bromegrass, Downy [4, 19]: 55 | Plant response rating, Bromegrass, Downy [4, 17]: 45 | Plant response rating, Bromegrass, Downy [4, 20]: 40 | Plant response rating, Bromegrass, Downy [4, 18]: 40 | Plant response rating, Canarygrass [5, 19]: 65 | Plant response rating, Canarygrass [5, 17]: 65 | Plant response rating, Canarygrass [5, 20]: 60 | Plant response rating, Canarygrass [5, 18]: 65 | Plant response rating, Guineagrass ([6]; 62 g ai/ha, scale 0 to 100): 10 | Plant response rating, Guineagrass ([6]; 125 g ai/ha, scale 0 to 100): 70 | Plant response rating, Guineagrass [6, 15]: 90 | Plant response rating, Guineagrass [6, 16]: 95 | Plant response rating, Foxtail, Green ([7]; 62 g ai/ha, scale 0 to 100): 10 | Plant response rating, Foxtail, Green ([7]; 125 g ai/ha, scale 0 to 100): 20 | Plant response rating, Foxtail, Green [7, 15]: 70 | Plant response rating, Foxtail, Green [7, 16]: 90 | Plant response rating, Itchgrass ([8]; 62 g ai/ha, scale 0 to 100): 0 | Plant response rating, Itchgrass ([8]; 125 g ai/ha, scale 0 to 100): 10 | Plant response rating, Itchgrass [8, 15]: 30 | Plant response rating, Itchgrass [8, 16]: 60 | Plant response rating, Crabgrass, Large ([9]; 62 g ai/ha, scale 0 to 100): 10 | Plant response rating, Crabgrass, Large ([9]; 125 g ai/ha, scale 0 to 100): 80 | Plant response rating, Crabgrass, Large [9, 15]: 95 | Plant response rating, Crabgrass, Large [9, 16]: 100 | Plant response rating, Quackgrass ([10]; 62 g ai/ha, scale 0 to 100): 50 | Plant response rating, Quackgrass ([10]; 125 g ai/ha, scale 0 to 100): 50 | Plant response rating, Quackgrass [10, 15]: 60 | Plant response rating, Quackgrass [10, 16]: 60 | Plant response rating, Prickly Sida ([11]; 62 g ai/ha, scale 0 to 100): 30 | Plant response rating, Prickly Sida ([11]; 125 g ai/ha, scale 0 to 100): 70 | Plant response rating, Prickly Sida [11, 15]: 75 | Plant response rating, Prickly Sida [11, 16]: 100 | Plant response rating, Chickweed ([12]; 125 g ai/ha, scale 0 to 100): 60 | Plant response rating, Chickweed [12, 15]: 100 | Plant response rating, Chickweed [12, 16]: 100 | Plant response rating, Foxtail, Green [13, 19]: 65 | Plant response rating, Foxtail, Green [13, 17]: 65 | Plant response rating, Foxtail, Green [13, 18]: 60 | Plant response rating, Black Mustard ([14]; 62 g ai/ha, scale 0 to 100): 10 | Plant response rating, Black Mustard ([14]; 125 g ai/ha, scale 0 to 100): 80 | Plant response rating, Black Mustard [14, 15]: 95 | Plant response rating, Black Mustard [14, 16]: 95

CCNC(=O)c1ccc(F)c(NC(=O)c2c3c(nn2CC)C(C)(C)CC3)c1 [Compound 353]
Plant response rating, Oat, Wild [2, 19]: 40 | Plant response rating, Oat, Wild [2, 21]: 60 | Plant response rating, Oat, Wild [2, 17]: 30 | Plant response rating, Oat, Wild [2, 18]: 10 | Plant response rating, Bromegrass, Downy [4, 19]: 30 | Plant response rating, Bromegrass, Downy [4, 21]: 35 | Plant response rating, Bromegrass, Downy [4, 17]: 20 | Plant response rating, Bromegrass, Downy [4, 18]: 10 | Plant response rating, Canarygrass [5, 19]: 10 | Plant response rating, Canarygrass [5, 21]: 20 | Plant response rating, Canarygrass [5, 17]: 10 | Plant response rating, Canarygrass [5, 18]: 0 | Plant response rating, Foxtail, Green [13, 19]: 20 | Plant response rating, Foxtail, Green [13, 21]: 30 | Plant response rating, Foxtail, Green [13, 17]: 20 | Plant response rating, Foxtail, Green [13, 18]: 15

C=CCNC(=O)c1cccc(NC(=O)c2nn(C(C)(C)C)nc2CC)c1 [Compound 414]
Plant response rating, Oat, Wild [2, 21]: 55 | Plant response rating, Oat, Wild [2, 17]: 45 | Plant response rating, Oat, Wild [2, 18]: 35 | Plant response rating, Bromegrass, Downy [4, 19]: 55 | Plant response rating, Bromegrass, Downy [4, 21]: 60 | Plant response rating, Bromegrass, Downy [4, 17]: 45 | Plant response rating, Bromegrass, Downy [4, 18]: 40 | Plant response rating, Canarygrass [5, 19]: 50 | Plant response rating, Canarygrass [5, 21]: 60 | Plant response rating, Canarygrass [5, 17]: 45 | Plant response rating, Canarygrass [5, 18]: 45 | Plant response rating, Foxtail, Green [13, 19]: 65 | Plant response rating, Foxtail, Green [13, 21]: 65 | Plant response rating, Foxtail, Green [13, 17]: 60 | Plant response rating, Foxtail, Green [13, 18]: 60
